Experimental data taken from US20150119267A1, “INHIBITION OF COLONY STIMULATING FACTOR-1 RECEPTOR SIGNALING FOR THE TREATMENT OF BRAIN CANCER” (SLOAN-KETTERING INSTITUTE FOR CANCER RESEARCH, priority 2012, published 2015).
“Also recorded” adds a separate entry of the source.

Columns and labels:
[1] = test system: primary bone marrow-derived macrophages (BMDMs); experiment: MTT assay, primary BMDMs; format: cell-based, mouse; details: wild-type C57BL/6 BMDMs in culture, 67 nM
Method: (§1) Cell growth rate was determined using the MTT cell proliferation kit (Roche). […] Media was changed every 48 hours. BMDM and CRL-2467 cells were supplemented with 10 ng/ml and 30 ng/ml recombinant mouse CSF-1 respectively unless otherwise indicated. Ten μl of MTT labeling reagent was added to each well and then incubated for 4 hours at 37° C., followed by the addition of 100 μl MTT solubilization reagent overnight. The mixture was gently resuspended and absorbance was measured at 595 nm and 750 nm on a SPECTRAMAX 340 pc plate reader (Molecular Devices).

[2] = test system: CRL-2467 microglia cell line; experiment: MTT assay, CRL-2467 microglia; format: cell-based
Method: U-87 MG (HTB-14) glioma and CRL-2467 microglia cell lines were purchased from ATCC. The U-87 MG cell line was cultured in DMEM+10% FBS. The CRL-2467 cell line was cultured in DMEM+10% FBS with 30 ng/ml recombinant mouse CSF-1.
as §1

[3] = BLZ945 pharmacokinetics, blood-brain barrier; format: in vivo, mouse; details: single dose 200 mg/kg oral gavage
Method: The CSF-1R inhibitor was obtained from the Novartis Institutes for Biomedical Research (Emeryville, Calif.). The drug was formulated in 20% captisol at a concentration of 12.5 mg/ml. The vehicle control, 20% captisol, was processed in the same manner. […] To determine if the drug was able to cross the blood-brain barrier, tumor-bearing mice were treated with a single dose of the CSF-1R inhibitor and sacrificed at different time points post-treatment. Plasma, and the left (contralateral) and right (tumor-bearing) hemispheres of the brain were snap frozen in liquid nitrogen for subsequent analysis of CSF-1R inhibitor concentrations in the tissue. For long-term survival studies, dosing begun at 17 days/2.5 weeks post-injection of RCAS-PDGF-B-HA. For the fixed time-point studies, mice underwent MRI scans at 4-5 weeks post-injection of RCAS-PDGF-B-HA, as previously described (5). To determine tumor volume, regions of interest (ROI) were circumscribed on T2 weighted images and their corresponding area in mm^2 was multiplied by the slice height of 0.7 mm. The total tumor volume is the sum of the ROI volume in each slice, and the volume for the first and last slice in which the tumor appears is halved to approximate the volume of a trapezoid. When tumor volume was in the range of 4.5-40 mm^3, animals were randomly assigned to treatment groups. […]

[4] = test system: PDGF-driven gliomas (PDG); experiment: Long-term survival trial in PDG mice; format: in vivo
CD11b+Gr-1− TAMs = experiment: Gene expression profiling of TAMs (microarray); format: in vivo, mouse
Mrc1 = Mrc1 expression in primary glioma cultures (flow cytometry); format: cell-based, mouse; details: CD45+CD11b+ cells
Method: Macrodissected tumors were digested to a single cell suspension by incubation for 8-12 minutes at 37° C. as described above. The cell suspension was washed with Neural Stem Cell (NSC) Basal Media (Stem Cell Technologies), and centrifuged at low speed (750 rpm Sorvall Legend RT), to remove debris. To derive mouse primary glioma cultures, the cell pellet was resuspended in DMEM containing 10% FBS (Gibco). These primary cultures were used at early passage (P2-P3), and contain a mixture of different cell types found in gliomas including tumor cells, macrophages, and astrocytes as determined by immunofluorescence staining. Primary glioma cultures were grown for 24 hours on poly-L-lysine coated coverslips (BD Biocoat). Cells were then fixed with 4% PFA in 0.1M phosphate buffer overnight at 4° C., permeabilized with 0.1% Triton-X for 5 minutes and blocked with 0.5% PNB for at least one hour. […]
For mouse primary glioma cultures (containing a mixed population of tumor cells, TAMs, astrocytes etc.; see FIG. 15), 1×10^6 cells were cultivated in DMEM+10% FBS in the presence of the CSF-1R inhibitor or DMSO as vehicle (n=6 independently isolated cultures). […] Cells were counted and incubated with 1 μl of Fc Block (BD Pharmingen) per 10^6 cells for at least 15 minutes at 4° C. […]

normal microglia = experiment: Microglia in normal non-tumor bearing mice, flow cytometry; format: in vivo, mouse; details: 200 mg/kg once per day for 7 days
Method: Data are presented as mean±SEM. […] Circles represent individual mice (n=5-6 per group). P values were obtained using unpaired two-tailed Student's t-test; *P<0.05.
As many immune cell epitopes are papain-sensitive, for investigation of immune cell infiltration by flow cytometric analysis, tumors were digested to a single cell suspension by incubation for 10 minutes at 37° C. with 5 mL of 1.5 mg/ml collagenase III (Worthington) and 0.06 mg/mL DNase I in 1× Hanks Balanced Salt Solution (HBSS) with calcium and magnesium. The cell suspension was then washed with PBS and passed through a 40 μm mesh to remove undigested tissue. To remove myelin debris, the cell pellet was resuspended at room temperature in 15 ml of 25% Percoll prepared from stock isotonic Percoll (90% Percoll [Sigma], 10% 10× HBSS), and then spun for 15 minutes at 1500 rpm (Sorvall Legend RT) with accelerator and brake set to 1. The cell pellet was then washed with lx HBSS prior to being resuspended in FACS buffer.
After counting, cells were incubated with 1 μl of Fc Block for every million cells for at least 15 minutes at 4° C. Cells were then stained with the appropriate antibodies for 10 minutes at 4° C., washed with FACS buffer, and resuspended in FACS buffer containing DAPI (5 mg/ml diluted 1:5000) for live/dead cell exclusion.

CNC(=O)c1cc(Oc2ccc3nc(N[C@@H]4CCCC[C@H]4O)sc3c2)ccn1 [BLZ945]
macrophage (BMDM) survival / viability [1]: significantly decreases the viability; also recorded: blocks macrophage survival | survival / viability of microglia cell line [2]: reduced viability; also recorded: blocks survival | blood-brain barrier crossing [3]: able to effectively cross the blood-brain barrier | concentration in contralateral non-tumor bearing hemisphere versus tumor ([3]; all time points tested): comparable to the level achieved in the tumor | tolerability ([4]; 200 mg/kg once daily, up to 26 weeks): well-tolerated | asymptomatic mice with no detectable lesions at end stage ([4]; 26-week endpoint): 55.6% | cohort still alive at trial endpoint (symptom-free survival) ([4]; 26 weeks post-injection, 200 mg/kg once daily from 2.5 weeks): 64.3% | tumor grade ([4]; versus vehicle, long-term survival trial): significantly less malignant tumors | targets of Egr2 (GSEA) (CD11b+Gr-1− TAMs; 7 days treatment): downregulated | upregulated differentially expressed genes (CD11b+Gr-1− TAMs; BLZ945 versus vehicle, 7 days treatment): 52 genes | classically activated/M1 macrophage markers (CD11b+Gr-1− TAMs; with the exception of IL-1 beta): not differentially expressed | Mrc1 in primary glioma cultures containing TAMs (Mrc1): decreased | normal microglia in non-tumor bearing mice (normal microglia): depletes normal microglia
